# Reference: patent US8859584B2, “TRPV1 antagonists” (AbbVie Inc., priority 2011, dated 2014)
# Key:
# human TRPV1 [1] = molecular target: T1, human TRPV1 (Homo sapiens, UniProt Q8NER1); experiment: Capsaicin Activation Assay (FLIPR intracellular Ca2+, recombinant HEK293 cells); format: cell-based; details: recombinant HEK293 cells expressing hTRPV1; 50 nM capsaicin; read-out: human TRPV1 capsaicin IC50
# T1 construct: expressed in transfected cells
# human TRPV1 [2] = molecular target: T1, human TRPV1; experiment: Acid Activation Assay (pH 5.0, FLIPR intracellular Ca2+, recombinant HEK293 cells); format: cell-based; details: percentage of maximal pH 5.0-induced response remaining; HEK293 hTRPV1; max concentration 37.5 μM
# Procedure, shortened: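 HEK293 cells stably expressing recombinant hTRPV1 were loaded with calcium dye for 90-120 min at 25° C and pre-treated with compound for 3 min before a pH 5.0 (DPBS/MES) challenge. Peak FLIPR fluorescence over baseline is given as percentage of the maximal pH 5.0-induced response.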
# T1 sequence (Q8NER1 whole entry): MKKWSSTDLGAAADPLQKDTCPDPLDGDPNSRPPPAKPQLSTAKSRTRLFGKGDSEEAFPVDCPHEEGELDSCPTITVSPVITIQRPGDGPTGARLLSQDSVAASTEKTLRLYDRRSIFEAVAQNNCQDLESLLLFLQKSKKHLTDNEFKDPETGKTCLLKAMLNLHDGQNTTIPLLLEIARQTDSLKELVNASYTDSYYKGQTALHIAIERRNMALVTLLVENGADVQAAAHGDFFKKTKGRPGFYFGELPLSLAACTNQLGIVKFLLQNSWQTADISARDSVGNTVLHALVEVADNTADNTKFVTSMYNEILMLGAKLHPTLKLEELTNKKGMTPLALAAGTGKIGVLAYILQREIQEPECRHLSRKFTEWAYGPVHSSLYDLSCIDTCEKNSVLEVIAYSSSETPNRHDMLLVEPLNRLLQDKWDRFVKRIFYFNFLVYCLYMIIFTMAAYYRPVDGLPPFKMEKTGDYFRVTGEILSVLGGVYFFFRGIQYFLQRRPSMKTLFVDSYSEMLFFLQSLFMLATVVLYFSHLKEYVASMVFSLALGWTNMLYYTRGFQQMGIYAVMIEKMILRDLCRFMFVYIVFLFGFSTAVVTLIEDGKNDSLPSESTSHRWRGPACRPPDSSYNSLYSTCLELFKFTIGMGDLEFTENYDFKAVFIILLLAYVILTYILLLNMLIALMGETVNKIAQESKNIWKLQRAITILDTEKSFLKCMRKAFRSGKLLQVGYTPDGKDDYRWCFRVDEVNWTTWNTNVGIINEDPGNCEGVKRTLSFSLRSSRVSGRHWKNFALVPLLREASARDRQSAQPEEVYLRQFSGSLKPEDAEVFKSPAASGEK
Compound,IC50 (human TRPV1 [1]),human TRPV1 H+ (max % remain) (human TRPV1 [2])
"O=C(Nc1cccc2c1C[C@@H](O)C2)N[C@@H]1CC(CF)(CF)Oc2ccccc21 [Example 86, 1-[(4R)-2,2-bis(fluoromethyl)-3,4-dihydro-2H-chromen-4-yl]-3-[(2S)-2-hydroxy-2,3-dihydro-1H-inden-4-yl]urea]",1600 nM,46%
"O=C(Nc1cccc2c1C[C@@H](O)C2)N[C@@H]1CC(CF)(CF)Oc2c(F)cccc21 [Example 87, 1-[(4R)-8-fluoro-2,2-bis(fluoromethyl)-3,4-dihydro-2H-chromen-4-yl]-3-[(2S)-2-hydroxy-2,3-dihydro-1H-inden-4-yl]urea]",1200 nM,50%
"O=C(Nc1cccc2c1C[C@H](O)C2)N[C@H]1COc2ccc(Cl)cc2C1 [Example 89, 1-[(3R)-6-chloro-3,4-dihydro-2H-chromen-3-yl]-3-[(2R)-2-hydroxy-2,3-dihydro-1H-inden-4-yl]urea]",560 nM,91%
"CC1(C)Oc2ccc(F)cc2CC1NC(=O)Nc1cccc2c1C[C@H](O)C2 (stereo partly drawn) [Example 91, 1-(6-fluoro-2,2-dimethyl-3,4-dihydro-2H-chromen-3-yl)-3-[(2R)-2-hydroxy-2,3-dihydro-1H-inden-4-yl]urea]",82 nM,78%
"O=C(Nc1cccc2c1C[C@H](O)C2)N[C@@H]1CCc2cc(F)ccc21 [Example 92, 1-[(1R)-5-fluoro-2,3-dihydro-1H-inden-1-yl]-3-[(2R)-2-hydroxy-2,3-dihydro-1H-inden-4-yl]urea]",270 nM,60%
"O=C(Nc1cccc2c1C[C@H](O)C2)N[C@H]1CCOc2cc(OC(F)(F)F)ccc21 [Example 93, 1-[(2R)-2-hydroxy-2,3-dihydro-1H-inden-4-yl]-3-[(4S)-7-(trifluoromethoxy)-3,4-dihydro-2H-chromen-4-yl]urea]",41000 nM,57%
"O=C(Nc1cccc2c1C[C@@H](O)C2)N[C@H]1CCOc2cc(OC(F)(F)F)ccc21 [Example 94, 1-[(2S)-2-hydroxy-2,3-dihydro-1H-inden-4-yl]-3-[(4S)-7-(trifluoromethoxy)-3,4-dihydro-2H-chromen-4-yl]urea]",5900 nM,47%
"O=C(Nc1c(F)ccc2c1C[C@@H](O)C2)N[C@@H]1CC(CF)(CF)Oc2cc(C(F)(F)F)ccc21 [Example 95, 1-[(4R)-2,2-bis(fluoromethyl)-7-(trifluoromethyl)-3,4-dihydro-2H-chromen-4-yl]-3-[(2S)-5-fluoro-2-hydroxy-2,3-dihydro-1H-inden-4-yl]urea]",170 nM,46%
"O=C(Nc1c(F)ccc2c1C[C@H](O)C2)N[C@@H]1CC(CF)(CF)Oc2cc(C(F)(F)F)ccc21 [Example 96, 1-[(4R)-2,2-bis(fluoromethyl)-7-(trifluoromethyl)-3,4-dihydro-2H-chromen-4-yl]-3-[(2R)-5-fluoro-2-hydroxy-2,3-dihydro-1H-inden-4-yl]urea]",62 nM,2%
"O=C(Nc1cccc2c1C[C@H](O)C2)N[C@H]1CC(CF)(CF)Oc2cc(Cl)ccc21 [Example 97, 1-[(4S)-7-chloro-2,2-bis(fluoromethyl)-3,4-dihydro-2H-chromen-4-yl]-3-[(2R)-2-hydroxy-2,3-dihydro-1H-inden-4-yl]urea]",1100 nM,58%
"O=C(Nc1cccc2c1C[C@@H](O)C2)N[C@H]1CC(CF)(CF)Oc2cc(Cl)ccc21 [Example 98, 1-[(4S)-7-chloro-2,2-bis(fluoromethyl)-3,4-dihydro-2H-chromen-4-yl]-3-[(2S)-2-hydroxy-2,3-dihydro-1H-inden-4-yl]urea]",500 nM,13%
"O=C(Nc1cccc2c1C[C@H](O)C2)NC1COc2cc(Cl)ccc2C1 (stereo partly drawn) [Example 99, 1-(7-chloro-3,4-dihydro-2H-chromen-3-yl)-3-[(2R)-2-hydroxy-2,3-dihydro-1H-inden-4-yl]urea]",570 nM,75%
"C[C@]1(CF)C[C@@H](NC(=O)Nc2c(F)ccc3c2C[C@@H](O)C3)c2ccc(Cl)cc2O1 [Example 100, 1-[(2R,4R)-7-chloro-2-(fluoromethyl)-2-methyl-3,4-dihydro-2H-chromen-4-yl]-3-[(2S)-5-fluoro-2-hydroxy-2,3-dihydro-1H-inden-4-yl]urea]",33 nM,30%
"O=C(Nc1cccc2c1C[C@H](O)C2)N[C@H]1CC2(CCC2)Oc2ccc(F)cc21 [Example 101, 1-[(4S)-6-fluoro-3,4-dihydrospiro[chromene-2,1′-cyclobutan]-4-yl]-3-[(2R)-2-hydroxy-2,3-dihydro-1H-inden-4-yl]urea]",1200 nM,90%
"O=C(Nc1cccc2c1C[C@@H](O)C2)N[C@H]1CC2(CCC2)Oc2ccc(F)cc21 [Example 102, 1-[(4S)-6-fluoro-3,4-dihydrospiro[chromene-2,1′-cyclobutan]-4-yl]-3-[(2S)-2-hydroxy-2,3-dihydro-1H-inden-4-yl]urea]",2800 nM,63%
"CC1(C)C[C@H](NC(=O)Nc2cccc3c2C[C@@H](O)C3)c2cc(F)ccc2O1 [Example 103, 1-[(4S)-6-fluoro-2,2-dimethyl-3,4-dihydro-2H-chromen-4-yl]-3-[(2S)-2-hydroxy-2,3-dihydro-1H-inden-4-yl]urea]",28000 nM,99%
"CC1(C)C[C@H](NC(=O)Nc2cccc3c2C[C@H](O)C3)c2cc(F)ccc2O1 [Example 104, 1-[(4S)-6-fluoro-2,2-dimethyl-3,4-dihydro-2H-chromen-4-yl]-3-[(2R)-2-hydroxy-2,3-dihydro-1H-inden-4-yl]urea]",> 38000 nM,100%
"CC1(C)C[C@@H](NC(=O)Nc2cccc3c2C[C@H](O)C3)c2ccc(C(F)(F)F)nc2O1 [Example 105, 1-[(4R)-2,2-dimethyl-7-(trifluoromethyl)-3,4-dihydro-2H-pyrano[2,3-b]pyridin-4-yl]-3-[(2R)-2-hydroxy-2,3-dihydro-1H-inden-4-yl]urea]",150 nM,39%
"O=C(Nc1cccc2c1C[C@H](O)C2)N[C@@H]1CCc2cc(OC(F)(F)F)ccc21 [Example 106, 1-[(2R)-2-hydroxy-2,3-dihydro-1H-inden-4-yl]-3-[(1R)-5-(trifluoromethoxy)-2,3-dihydro-1H-inden-1-yl]urea]",56 nM,26%
"COc1ccc2c(c1)OCCC2NC(=O)Nc1cccc2c1CC(O)C2 (stereo not drawn) [Example 107, 1-(2-hydroxy-2,3-dihydro-1H-inden-4-yl)-3-(7-methoxy-3,4-dihydro-2H-chromen-4-yl)urea]",2200 nM,55%
"O=C(Nc1cccc2c1CC(O)C2)NC1c2ccccc2OCC1c1ccccc1 (stereo not drawn) [Example 108, 1-(2-hydroxy-2,3-dihydro-1H-inden-4-yl)-3-(3-phenyl-3,4-dihydro-2H-chromen-4-yl)urea]",8000 nM,97%
"COc1ccc(CC2COc3ccccc3C2NC(=O)Nc2cccc3c2CC(O)C3)cc1OC (stereo not drawn) [Example 109, 1-[3-(3,4-dimethoxybenzyl)-3,4-dihydro-2H-chromen-4-yl]-3-(2-hydroxy-2,3-dihydro-1H-inden-4-yl)urea]",3100 nM,89%
"O=C(Nc1cccc2c1CC(O)C2)NC1CC(c2cccc(Cl)c2)Oc2ccccc21 (stereo not drawn) [Example 110, 1-[2-(3-chlorophenyl)-3,4-dihydro-2H-chromen-4-yl]-3-(2-hydroxy-2,3-dihydro-1H-inden-4-yl)urea]",240 nM,59%
"O=C(Nc1cccc2c1CC(O)C2)NC1c2ccccc2OCC1Cc1ccccc1 (stereo not drawn) [Example 111, 1-(3-benzyl-3,4-dihydro-2H-chromen-4-yl)-3-(2-hydroxy-2,3-dihydro-1H-inden-4-yl)urea]",2200 nM,94%
"O=C(Nc1cccc2c1CC(O)C2)NC1c2ccccc2OCC1Cc1ccc(Cl)c(Cl)c1 (stereo not drawn) [Example 112, 1-[3-(3,4-dichlorobenzyl)-3,4-dihydro-2H-chromen-4-yl]-3-(2-hydroxy-2,3-dihydro-1H-inden-4-yl)urea]",980 nM,77%
"COc1ccc(C2CC(NC(=O)Nc3cccc4c3CC(O)C4)c3ccccc3O2)cc1OC (stereo not drawn) [Example 113, 1-[2-(3,4-dimethoxyphenyl)-3,4-dihydro-2H-chromen-4-yl]-3-(2-hydroxy-2,3-dihydro-1H-inden-4-yl)urea]",> 38000 nM,74%
"COc1ccc2c(c1)OCC(Cc1ccc(Cl)c(Cl)c1)C2NC(=O)Nc1cccc2c1CC(O)C2 (stereo not drawn) [Example 114, 1-[3-(3,4-dichlorobenzyl)-7-methoxy-3,4-dihydro-2H-chromen-4-yl]-3-(2-hydroxy-2,3-dihydro-1H-inden-4-yl)urea]",720 nM,43%
"O=C(Nc1cccc2c1CC(O)C2)NC1c2ccccc2OCC1c1ccc(Cl)cc1 (stereo not drawn) [Example 115, 1-[3-(4-chlorophenyl)-3,4-dihydro-2H-chromen-4-yl]-3-(2-hydroxy-2,3-dihydro-1H-inden-4-yl)urea]",1100 nM,94%
"COc1ccc(C2COc3ccccc3C2NC(=O)Nc2cccc3c2CC(O)C3)cc1 (stereo not drawn) [Example 116, 1-(2-hydroxy-2,3-dihydro-1H-inden-4-yl)-3-[3-(4-methoxyphenyl)-3,4-dihydro-2H-chromen-4-yl]urea]",4100 nM,94%
"O=C(Nc1cccc2c1CC(O)C2)NC1CC(c2ccc(Cl)cc2)Oc2ccccc21 (stereo not drawn) [Example 117, 1-[2-(4-chlorophenyl)-3,4-dihydro-2H-chromen-4-yl]-3-(2-hydroxy-2,3-dihydro-1H-inden-4-yl)urea]",130 nM,45%
